Data as given in paper PMC1636466 (Nucleic Acids Research, 2006).

Molecular target: Vent(exo-) DNA polymerase (Thermococcus litoralis, UniProt P30317, D141A/E143A)
Conditions: natural primer/template PA/T0, 40 °C, supplied reaction buffer, dATP 10–800 μM

Question: Which Km does the source give for `Nc1ncnc2c1ncn2[C@H]1C[C@H](O)[C@@H](COP(=O)(O)OP(=O)(O)OP(=O)(O)O)O1` [dATP] here?
Answer: The Km was 5.52 µM.
